# Results: ChEMBL document CHEMBL1275467, “Spread of OXA-48-positive carbapenem-resistant Klebsiella pneumoniae isolates in Istanbul, Turkey” (2008)
# Legend:
# Format in all cases: functional
# Klebsiella pneumoniae [1] = assay: Antimicrobial activity against Klebsiella pneumoniae isolate 11 expressing beta-lactamase Oxa-48, TEM-1 and Oxa-1 by Etest
# Escherichia coli [2] = assay: Antimicrobial activity against Escherichia coli J53 harboring beta-lactamase Oxa-48 by Etest
# Klebsiella pneumoniae [3] = assay: Antimicrobial activity against Klebsiella pneumoniae containing PFGE clone A expressing beta-lactamase Oxa-48, TEM-1, SHV-12 and Oxa-9 by Etest
# Escherichia coli [4] = assay: Antimicrobial activity against Escherichia coli J53 by Etest
# Klebsiella pneumoniae [5] = assay: Antimicrobial activity against Klebsiella pneumoniae isolate 21 expressing beta-lactamase Oxa-48, TEM-1 and Oxa-9 by Etest
# Klebsiella pneumoniae [6] = assay: Antimicrobial activity against Klebsiella pneumoniae containing PFGE clone B expressing beta-lactamase Oxa-48, TEM-1, CTX-M-15 and Oxa-1 by Etest
# Escherichia coli [7] = assay: Antimicrobial activity against Escherichia coli J53 harboring beta-lactamase TEM-1, CTX-M-15 and Oxa-1 by Etest
# Escherichia coli [8] = assay: Antimicrobial activity against Escherichia coli J53 harboring beta-lactamase TEM-1, SHV-12 and Oxa-9 by Etest
# Escherichia coli [9] = assay: Antimicrobial activity against Escherichia coli J53 by Etest in presence of beta-lactamase inhibitor clavulanic acid
# Escherichia coli [10] = assay: Antimicrobial activity against Escherichia coli J53 harboring beta-lactamase TEM-1, CTX-M-15 and Oxa-1 by Etest in presence of beta-lactamase inhibitor clavulanic acid
# Escherichia coli [11] = assay: Antimicrobial activity against Escherichia coli J53 harboring beta-lactamase Oxa-48 by Etest in presence of beta-lactamase inhibitor clavulanic acid
# Klebsiella pneumoniae [12] = assay: Antimicrobial activity against Klebsiella pneumoniae isolate 21 expressing beta-lactamase Oxa-48, TEM-1 and Oxa-9 by Etest in presence of beta-lactamase inhibitor clavulanic acid
# Klebsiella pneumoniae [13] = assay: Antimicrobial activity against Klebsiella pneumoniae containing PFGE clone A expressing beta-lactamase Oxa-48, TEM-1, SHV-12 and Oxa-9 by Etest in presence of beta-lactamase inhibitor clavulanic acid
# Klebsiella pneumoniae [14] = assay: Antimicrobial activity against Klebsiella pneumoniae containing PFGE clone B expressing beta-lactamase Oxa-48, TEM-1, CTX-M-15 and Oxa-1 by Etest in presence of beta-lactamase inhibitor clavulanic acid
# Klebsiella pneumoniae [15] = assay: Antimicrobial activity against Klebsiella pneumoniae isolate 11 expressing beta-lactamase Oxa-48, TEM-1 and Oxa-1 by Etest in presence of beta-lactamase inhibitor clavulanic acid
# Escherichia coli [16] = assay: Antimicrobial activity against Escherichia coli J53 harboring beta-lactamase TEM-1, SHV-12 and Oxa-9 by Etest in presence of beta-lactamase inhibitor clavulanic acid
# Escherichia coli [17] = assay: Antimicrobial activity against Escherichia coli J53 harboring beta-lactamase TEM-1, SHV-12 and Oxa-9 by Etest in presence of beta-lactamase inhibitor Tazobactam
# Klebsiella pneumoniae [18] = assay: Antimicrobial activity against Klebsiella pneumoniae isolate 11 expressing beta-lactamase Oxa-48, TEM-1 and Oxa-1 by Etest in presence of beta-lactamase inhibitor Tazobactam
# Klebsiella pneumoniae [19] = assay: Antimicrobial activity against Klebsiella pneumoniae isolate 21 expressing beta-lactamase Oxa-48, TEM-1 and Oxa-9 by Etest in presence of beta-lactamase inhibitor Tazobactam
# Klebsiella pneumoniae [20] = assay: Antimicrobial activity against Klebsiella pneumoniae containing PFGE clone B expressing beta-lactamase Oxa-48, TEM-1, CTX-M-15 and Oxa-1 by Etest in presence of beta-lactamase inhibitor Tazobactam
# Escherichia coli [21] = assay: Antimicrobial activity against Escherichia coli J53 by Etest in presence of beta-lactamase inhibitor Tazobactam
# Escherichia coli [22] = assay: Antimicrobial activity against Escherichia coli J53 harboring beta-lactamase TEM-1, CTX-M-15 and Oxa-1 by Etest in presence of beta-lactamase inhibitor Tazobactam
# Escherichia coli [23] = assay: Antimicrobial activity against Escherichia coli J53 harboring beta-lactamase Oxa-48 by Etest in presence of beta-lactamase inhibitor Tazobactam
# Klebsiella pneumoniae [24] = assay: Antimicrobial activity against Klebsiella pneumoniae containing PFGE clone A expressing beta-lactamase Oxa-48, TEM-1, SHV-12 and Oxa-9 by Etest in presence of beta-lactamase inhibitor Tazobactam
Compound,MIC (Klebsiella pneumoniae [1]) [µg/mL],MIC (Escherichia coli [2]) [µg/mL],MIC (Klebsiella pneumoniae [3]) [µg/mL],MIC (Escherichia coli [4]) [µg/mL],MIC (Klebsiella pneumoniae [5]) [µg/mL],MIC (Klebsiella pneumoniae [6]) [µg/mL],MIC (Escherichia coli [7]) [µg/mL],MIC (Escherichia coli [8]) [µg/mL],also measured
C[C@@H](O)[C@H]1C(=O)N2C(C(=O)O)=C(S[C@@H]3CN[C@H](C(=O)Nc4cccc(C(=O)O)c4)C3)[C@H](C)[C@H]12,> 32,0.25,> 32,< 1,> 32,> 32,,,
CO/N=C(\C(=O)N[C@@H]1C(=O)N2C(C(=O)[O-])=C(C[N+]3(C)CCCC3)CS[C@H]12)c1csc(N)n1,4,< 0.5,,0.125,4,,4,0.5,
NCC[C@H](O)C(=O)N[C@@H]1C[C@H](N)[C@@H](O[C@H]2O[C@H](CN)[C@@H](O)[C@H](O)[C@H]2O)[C@H](O)[C@H]1O[C@H]1O[C@H](CO)[C@@H](O)[C@H](N)[C@H]1O [AMIKACIN],,,16,,,2,,,
CC1(C)S[C@@H]2[C@H](NC(=O)[C@H](N)c3ccc(O)cc3)C(=O)N2[C@H]1C(=O)O [AMOXICILLIN],> 512,> 512,> 512,1,> 512,> 512,> 512,> 512,MIC (Escherichia coli [9]): 1 µg/mL; MIC (Escherichia coli [10]): > 513 µg/mL; MIC (Escherichia coli [11]): > 512 µg/mL; MIC (Klebsiella pneumoniae [12]): > 512 µg/mL; MIC (Klebsiella pneumoniae [13]): > 512 µg/mL; MIC (Klebsiella pneumoniae [14]): > 512 µg/mL; MIC (Klebsiella pneumoniae [15]): > 512 µg/mL; MIC (Escherichia coli [16]): > 512 µg/mL
C[C@H]1[C@H](NC(=O)/C(=N\OC(C)(C)C(=O)O)c2csc(N)n2)C(=O)N1S(=O)(=O)O [AZTREONAM],0.5,< 0.125,,0.5,0.5,,8,64,
CO/N=C(\C(=O)N[C@@H]1C(=O)N2C(C(=O)O)=C(COC(C)=O)CS[C@H]12)c1csc(N)n1 [CEFOTAXIME],4,0.5,> 512,0.5,4,> 512,> 32,4,
CO[C@@]1(NC(=O)Cc2cccs2)C(=O)N2C(C(=O)O)=C(COC(N)=O)CS[C@@H]21 [CEFOXITIN],16,4,16,4,> 32,> 32,2,2,
CC(C)(O/N=C(\C(=O)N[C@@H]1C(=O)N2C(C(=O)[O-])=C(C[n+]3ccccc3)CS[C@H]12)c1csc(N)n1)C(=O)O [CEFTAZIDIME],2,1,> 512,1,2,> 512,128,64,
C[C@@H](O)[C@H]1C(=O)N2C(C(=O)O)=C(SCCNC=N)C[C@H]12 [IMIPENEM ANHYDROUS],8,0.5,4,,8,4,< 1,< 1,
NC[C@H]1O[C@H](O[C@H]2[C@H](O)[C@@H](O[C@H]3O[C@H](CO)[C@@H](O)[C@H](N)[C@H]3O)[C@H](N)C[C@@H]2N)[C@H](O)[C@@H](O)[C@@H]1O [KANAMYCIN],,,> 256,,,128,,,
C[C@@H](O)[C@H]1C(=O)N2C(C(=O)O)=C(S[C@@H]3CN[C@H](C(=O)N(C)C)C3)[C@H](C)[C@H]12 [MEROPENEM],,0.12,> 32,< 1,,6,,,
CO[C@@]1(NC(=O)C(C(=O)O)c2ccc(O)cc2)C(=O)N2C(C(=O)O)=C(CSc3nnnn3C)CO[C@@H]21 (some centres not stated) [MOXALACTAM],,2,> 16,1,,> 16,< 0.5,< 0.5,
CCn1cc(C(=O)O)c(=O)c2ccc(C)nc21 [NALIDIXIC ACID],,,> 64,,,> 64,,,
CCN[C@@H]1C[C@H](N)[C@@H](O[C@H]2OC(CN)=CC[C@H]2N)[C@H](O)[C@H]1O[C@H]1OC[C@](C)(O)[C@H](NC)[C@H]1O [NETILMICIN],,,> 128,,,3,,,
CCn1cc(C(=O)O)c(=O)c2cc(F)c(N3CCNCC3)cc21 [NORFLOXACIN],,,8,,,> 256,,,
CC1COc2c(N3CCN(C)CC3)c(F)cc3c(=O)c(C(=O)O)cn1c23 (configuration not stated) [OFLOXACIN],,,2,,,> 64,,,
CCN1CCN(C(=O)N[C@@H](C(=O)N[C@@H]2C(=O)N3[C@@H]2SC(C)(C)[C@@H]3C(=O)O)c2ccccc2)C(=O)C1=O [PIPERACILLIN],> 512,> 512,> 512,4,> 512,> 512,> 512,> 512,MIC (Escherichia coli [17]): > 4 µg/mL; MIC (Klebsiella pneumoniae [18]): > 512 µg/mL; MIC (Klebsiella pneumoniae [19]): > 512 µg/mL; MIC (Klebsiella pneumoniae [20]): > 512 µg/mL; MIC (Escherichia coli [21]): 4 µg/mL; MIC (Escherichia coli [22]): > 4 µg/mL; MIC (Escherichia coli [23]): 64 µg/mL; MIC (Klebsiella pneumoniae [24]): > 512 µg/mL
CN(C)[C@@H]1C(O)=C(C(N)=O)C(=O)[C@@]2(O)C(O)=C3C(=O)c4c(O)cccc4[C@@](C)(O)[C@H]3C[C@@H]12 [TETRACYCLINE],,,> 256,,,> 256,,,
CC1(C)S[C@@H]2[C@H](NC(=O)[C@H](C(=O)O)c3ccsc3)C(=O)N2[C@H]1C(=O)O [TICARCILLIN],> 512,> 512,> 512,4,> 512,> 512,> 514,> 512,MIC (Escherichia coli [9]): 4 µg/mL; MIC (Escherichia coli [10]): > 512 µg/mL; MIC (Escherichia coli [11]): > 512 µg/mL; MIC (Klebsiella pneumoniae [12]): > 512 µg/mL; MIC (Klebsiella pneumoniae [13]): > 512 µg/mL; MIC (Klebsiella pneumoniae [14]): > 512 µg/mL; MIC (Klebsiella pneumoniae [15]): > 512 µg/mL; MIC (Escherichia coli [16]): > 512 µg/mL
NC[C@H]1O[C@H](O[C@H]2[C@H](O)[C@@H](O[C@H]3O[C@H](CO)[C@@H](O)[C@H](N)[C@H]3O)[C@H](N)C[C@@H]2N)[C@H](N)C[C@@H]1O [TOBRAMYCIN],,,> 64,,,> 64,,,
COc1cc(Cc2cnc(N)nc2N)cc(OC)c1OC [TRIMETHOPRIM],,,> 32,,,> 32,,,
GENTAMICIN,,,> 64,,,1,,,
